ChEMBL document CHEMBL4680222, “Sensitive fluorogenic substrates for sirtuin deacylase inhibitor discovery” (Eur J Med Chem, 2020)
Calls of active or inactive are those of the source. No cut-off for these calls is given here. *1 amine or outer side, *2 acyl side, *3 side chain or, on linkers, in order; H or OH if unused. Where a SMILES comes first, the peptide text is derived from it. The star is where a group is joined. AMC = Cc1cc(=O)oc2cc(N*)ccc12; Suc = O=C(CCC(=O)[*:2])[*:1]; Decanoyl = CCCCCCCCCC(=O)*

Experiments:
[1] = target: NAD-dependent protein deacylase sirtuin-5, mitochondrial (Homo sapiens) (UniProt Q9NXA8); assay: Substrate activity at human N-terminal His-tagged SIRT5 (34 to 302 residues) expressed in Escherichia coli at 0.5 uM measured after 2 hrs in presence of NAD+ and trypsin by fluorescence assay
NAD-dependent protein deacylase sirtuin-5, mitochondrial (Homo sapiens), sequence (Q9NXA8 37-310 limits assumed): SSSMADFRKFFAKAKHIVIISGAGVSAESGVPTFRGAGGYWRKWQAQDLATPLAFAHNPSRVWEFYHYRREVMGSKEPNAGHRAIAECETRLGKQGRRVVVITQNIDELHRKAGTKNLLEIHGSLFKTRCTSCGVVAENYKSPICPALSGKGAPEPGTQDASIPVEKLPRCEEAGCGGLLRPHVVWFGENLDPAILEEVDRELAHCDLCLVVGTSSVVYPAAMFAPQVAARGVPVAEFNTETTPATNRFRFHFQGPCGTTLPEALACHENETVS

[2] = target: T1, NAD-dependent protein deacetylase sirtuin-3, mitochondrial (Homo sapiens) (UniProt Q9NTG7); assay: Substrate activity at human N-terminal His-tagged SIRT3 (122 to 391 residues) expressed in Escherichia coli at 50 uM measured after 2 hrs in presence of NAD+ and trypsin by fluorescence assay
T1 sequence (whole entry): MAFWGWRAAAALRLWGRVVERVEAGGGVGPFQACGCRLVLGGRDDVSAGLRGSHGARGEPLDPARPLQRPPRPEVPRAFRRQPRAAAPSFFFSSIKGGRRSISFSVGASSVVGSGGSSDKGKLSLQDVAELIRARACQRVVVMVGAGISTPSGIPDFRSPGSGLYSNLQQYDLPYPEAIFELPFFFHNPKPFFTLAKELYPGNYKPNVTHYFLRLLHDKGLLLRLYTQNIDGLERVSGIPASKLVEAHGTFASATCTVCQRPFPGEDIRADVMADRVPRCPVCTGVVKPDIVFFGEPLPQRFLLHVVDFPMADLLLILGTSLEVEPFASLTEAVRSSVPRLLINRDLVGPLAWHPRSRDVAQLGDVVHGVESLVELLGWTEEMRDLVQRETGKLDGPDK

[3] = target: NAD-dependent protein deacylase sirtuin-6 (Homo sapiens) (UniProt Q8N6T7); assay: Substrate activity at human N-terminal His-tagged SIRT6 (1 to 355 residues) expressed in Escherichia coli at 50 uM measured after 2 hrs in presence of NAD+ and trypsin by fluorescence assay
NAD-dependent protein deacylase sirtuin-6 (Homo sapiens), sequence (Q8N6T7 whole entry, the tested form may be a part): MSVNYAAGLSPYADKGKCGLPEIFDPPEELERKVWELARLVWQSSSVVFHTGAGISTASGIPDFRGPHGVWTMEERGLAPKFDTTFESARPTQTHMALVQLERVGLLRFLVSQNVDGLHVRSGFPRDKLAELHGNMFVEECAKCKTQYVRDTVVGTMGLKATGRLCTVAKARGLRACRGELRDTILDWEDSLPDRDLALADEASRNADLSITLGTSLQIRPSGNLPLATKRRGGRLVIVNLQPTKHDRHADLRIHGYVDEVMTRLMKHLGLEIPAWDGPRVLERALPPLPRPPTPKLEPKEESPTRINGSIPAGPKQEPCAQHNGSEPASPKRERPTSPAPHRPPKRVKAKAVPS

[4] = target: NAD-dependent protein deacylase sirtuin-6 (Homo sapiens) (UniProt Q8N6T7); assay: Substrate activity at human N-terminal His-tagged SIRT6 (1 to 355 residues) expressed in Escherichia coli at 0.5 uM measured after 2 hrs in presence of NAD+ and trypsin by fluorescence assay
[5] = target: T2, NAD-dependent protein deacetylase sirtuin-1 (Homo sapiens) (UniProt Q96EB6); assay: Substrate activity at human N-terminal His-tagged SIRT1 (183 to 664 residues) expressed in Escherichia coli at 5 uM measured after 2 hrs in presence of NAD+ and trypsin by fluorescence assay
T2 sequence (whole entry): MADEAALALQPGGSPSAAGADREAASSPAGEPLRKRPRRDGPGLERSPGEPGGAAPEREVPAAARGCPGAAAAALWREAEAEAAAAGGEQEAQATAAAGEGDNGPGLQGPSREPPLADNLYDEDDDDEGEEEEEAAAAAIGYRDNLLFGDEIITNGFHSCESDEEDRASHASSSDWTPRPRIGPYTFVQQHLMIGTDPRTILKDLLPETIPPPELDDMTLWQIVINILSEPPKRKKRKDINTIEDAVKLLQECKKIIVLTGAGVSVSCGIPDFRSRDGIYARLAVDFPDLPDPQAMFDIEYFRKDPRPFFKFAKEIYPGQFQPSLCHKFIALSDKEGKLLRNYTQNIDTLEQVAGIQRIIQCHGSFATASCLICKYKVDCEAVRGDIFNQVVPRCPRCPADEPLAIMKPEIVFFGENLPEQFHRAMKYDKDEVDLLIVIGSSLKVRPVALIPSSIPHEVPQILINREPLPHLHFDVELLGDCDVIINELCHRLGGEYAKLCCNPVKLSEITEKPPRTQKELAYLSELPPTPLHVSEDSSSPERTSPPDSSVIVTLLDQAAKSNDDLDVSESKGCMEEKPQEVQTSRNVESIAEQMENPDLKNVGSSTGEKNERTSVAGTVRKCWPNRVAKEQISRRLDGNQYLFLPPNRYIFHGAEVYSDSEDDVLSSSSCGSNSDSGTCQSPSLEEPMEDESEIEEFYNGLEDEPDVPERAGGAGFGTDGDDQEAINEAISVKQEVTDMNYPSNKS

[6] = target: T3, NAD-dependent protein deacetylase sirtuin-2 (Homo sapiens) (UniProt Q8IXJ6); assay: Substrate activity at human N-terminal His-tagged SIRT2 (56 to 356 residues) expressed in Escherichia coli at 5 uM measured after 1 hr in presence of NAD+ and trypsin by fluorescence assay
T3 sequence (whole entry): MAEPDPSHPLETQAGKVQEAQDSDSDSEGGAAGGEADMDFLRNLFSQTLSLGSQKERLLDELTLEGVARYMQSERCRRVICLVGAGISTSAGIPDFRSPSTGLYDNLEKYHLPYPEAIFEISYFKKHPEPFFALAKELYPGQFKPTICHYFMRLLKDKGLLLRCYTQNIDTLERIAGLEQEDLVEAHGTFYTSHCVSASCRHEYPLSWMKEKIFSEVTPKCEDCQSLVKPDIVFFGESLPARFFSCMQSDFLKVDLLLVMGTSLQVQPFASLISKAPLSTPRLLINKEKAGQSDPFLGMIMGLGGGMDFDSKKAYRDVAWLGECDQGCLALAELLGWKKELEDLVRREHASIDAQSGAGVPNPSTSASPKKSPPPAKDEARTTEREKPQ

[7] = target: T1, NAD-dependent protein deacetylase sirtuin-3, mitochondrial (Homo sapiens); assay: Substrate activity at human N-terminal His-tagged SIRT3 (122 to 391 residues) expressed in Escherichia coli at 5 uM measured after 2 hrs in presence of NAD+ and trypsin by fluorescence assay
[8] = target: T4, NAD-dependent protein deacetylase sirtuin-7 (Homo sapiens) (UniProt Q9NRC8); assay: Substrate activity at human N-terminal His-tagged SIRT7 (68 to 354 residues) expressed in Escherichia coli at 50 uM measured after 2 hrs in presence of NAD+ and trypsin by fluorescence assay
T4 sequence (whole entry): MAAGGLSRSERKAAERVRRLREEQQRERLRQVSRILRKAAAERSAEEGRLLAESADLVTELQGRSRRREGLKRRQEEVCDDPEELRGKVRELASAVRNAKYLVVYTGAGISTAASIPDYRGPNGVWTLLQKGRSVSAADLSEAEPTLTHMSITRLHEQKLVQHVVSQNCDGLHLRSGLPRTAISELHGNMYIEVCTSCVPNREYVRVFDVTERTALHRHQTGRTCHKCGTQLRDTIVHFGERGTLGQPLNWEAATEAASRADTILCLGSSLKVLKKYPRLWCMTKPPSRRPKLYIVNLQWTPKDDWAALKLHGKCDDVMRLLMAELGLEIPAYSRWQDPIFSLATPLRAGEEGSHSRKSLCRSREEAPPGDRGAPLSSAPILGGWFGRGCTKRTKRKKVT

[9] = target: T2, NAD-dependent protein deacetylase sirtuin-1 (Homo sapiens); assay: Substrate activity at human N-terminal His-tagged SIRT1 (183 to 664 residues) expressed in Escherichia coli at 50 uM measured after 2 hrs in presence of NAD+ and trypsin by fluorescence assay
[10] = target: T4, NAD-dependent protein deacetylase sirtuin-7 (Homo sapiens); assay: Substrate activity at human N-terminal His-tagged SIRT7 (68 to 354 residues) expressed in Escherichia coli at 5 uM measured after 2 hrs in presence of NAD+ and trypsin by fluorescence assay
[11] = target: T4, NAD-dependent protein deacetylase sirtuin-7 (Homo sapiens); assay: Substrate activity at human N-terminal His-tagged SIRT7 (68 to 354 residues) expressed in Escherichia coli at 0.5 uM measured after 2 hrs in presence of NAD+ and trypsin by fluorescence assay
[12] = target: T3, NAD-dependent protein deacetylase sirtuin-2 (Homo sapiens); assay: Substrate activity at human N-terminal His-tagged SIRT2 (56 to 356 residues) expressed in Escherichia coli at 0.5 uM measured after 2 hrs in presence of NAD+ and trypsin by fluorescence assay
[13] = target: T3, NAD-dependent protein deacetylase sirtuin-2 (Homo sapiens); assay: Substrate activity at human N-terminal His-tagged SIRT2 (56 to 356 residues) expressed in Escherichia coli at 50 uM measured after 2 hrs in presence of NAD+ and trypsin by fluorescence assay
[14] = target: NAD-dependent protein deacylase sirtuin-5, mitochondrial (Homo sapiens) (UniProt Q9NXA8); assay: Substrate activity at human N-terminal His-tagged SIRT5 (34 to 302 residues) expressed in Escherichia coli at 5 uM measured after 2 hrs in presence of NAD+ and trypsin by fluorescence assay
[15] = target: NAD-dependent protein deacylase sirtuin-5, mitochondrial (Homo sapiens) (UniProt Q9NXA8); assay: Substrate activity at human N-terminal His-tagged SIRT5 (34 to 302 residues) expressed in Escherichia coli at 50 uM measured after 2 hrs in presence of NAD+ and trypsin by fluorescence assay
[16] = target: T2, NAD-dependent protein deacetylase sirtuin-1 (Homo sapiens); assay: Substrate activity at human N-terminal His-tagged SIRT1 (183 to 664 residues) expressed in Escherichia coli at 0.5 uM measured after 2 hrs in presence of NAD+ and trypsin by fluorescence assay
[17] = target: NAD-dependent protein deacylase sirtuin-6 (Homo sapiens) (UniProt Q8N6T7); assay: Substrate activity at human N-terminal His-tagged SIRT6 (1 to 355 residues) expressed in Escherichia coli at 5 uM measured after 2 hrs in presence of NAD+ and trypsin by fluorescence assay
[18] = target: T3, NAD-dependent protein deacetylase sirtuin-2 (Homo sapiens); assay: Substrate activity at human N-terminal His-tagged SIRT2 (56 to 356 residues) expressed in Escherichia coli at 5 uM measured after 2 hrs in presence of NAD+ and trypsin by fluorescence assay
[19] = target: T1, NAD-dependent protein deacetylase sirtuin-3, mitochondrial (Homo sapiens); assay: Substrate activity at human N-terminal His-tagged SIRT3 (122 to 391 residues) expressed in Escherichia coli at 0.5 uM measured after 2 hrs in presence of NAD+ and trypsin by fluorescence assay
[20] = target: NAD-dependent protein deacylase sirtuin-5, mitochondrial (Homo sapiens) (UniProt Q9NXA8); assay: Substrate activity at human N-terminal His-tagged SIRT5 (34 to 302 residues) expressed in Escherichia coli at 5 uM measured after 1 hr in presence of NAD+ and trypsin by fluorescence assay

Row | SMILES | Activity [1] [RFU] | Activity [2] [RFU] | Activity [3] [RFU] | Activity [4] [RFU] | Activity [5] [RFU] | Activity [6] | Activity [7] [RFU] | Activity [8] [RFU] | Activity [9] [RFU] | Activity [10] [RFU] | Activity [11] [RFU] | Activity [12] [RFU] | Activity [13] [RFU] | Activity [14] [RFU] | Activity [15] [RFU] | Activity [16] [RFU] | Activity [17] [RFU] | Activity [18] [RFU] | Activity [19] [RFU] | Activity [20]
1 | CCCCCCCCCC(=O)NCCCC[C@H](NC(=O)[C@H](CC(=O)O)NC(=O)[C@@H](NC(=O)[C@H](CCC(=O)O)NC(C)=O)[C@@H](C)O)C(=O)Nc1ccc2c(C)cc(=O)oc2c1 (Ac-ETDK(Decanoyl)-{AMC}) | 0.3 | 1.86 | 0.73 | 0.39 | 1.37 | Active | 0.66 | 0.73 | 4.13 | 0.38 | 0.28 | 2.97 | 79.9 | 0.42 | 1.24 | 2.97 | 0.33 | 20.6 | 0.51 | 
2 | CC(=O)N[C@@H](Cc1cnc[nH]1)C(=O)N[C@@H](Cc1ccccc1)C(=O)N[C@@H](CO)C(=O)N[C@@H](CCCCNC(=O)CCC(=O)O)C(=O)Nc1ccc2c(C)cc(=O)oc2c1 (Ac-HFSK(Suc)-{AMC}) | 1.15 | 0.89 | 0.51 | 0.41 | 0.36 |  | 0.55 | 0.51 | 0.69 | 1.36 | 0.28 | 0.16 | 1.03 | 8.98 | 0.71 | 0.16 | 0.32 | 0.21 | 0.49 | Active
3 | CC(=O)N[C@@H](CC(C)C)C(=O)NCC(=O)N[C@@H](CO)C(=O)N[C@@H](CCCCNC(=O)CCC(=O)O)C(=O)Nc1ccc2c(C)cc(=O)oc2c1 (Ac-LGSK(Suc)-{AMC}) | 3.07 | 1.42 | 1.14 | 0.41 | 0.35 |  | 0.56 | 1.14 | 0.98 | 0.32 | 0.28 | 0.2 | 0.9 | 25.1 | 1.41 | 0.2 | 0.37 | 0.21 | 0.5 | Active
4 | CC(=O)N[C@@H](CO)C(=O)N[C@@H](CC(C)C)C(=O)NCC(=O)N[C@@H](CCCCNC(=O)CCC(=O)O)C(=O)Nc1ccc2c(C)cc(=O)oc2c1 (Ac-SLGK(Suc)-{AMC}) | 3.36 | 1.32 | 1.18 | 0.38 | 0.44 |  | 0.53 | 1.18 | 1.05 | 0.41 | 0.3 | 0.24 | 1.03 | 21.5 | 1.5 | 0.24 | 0.37 | 0.25 | 0.48 | Active
5 | CCCCCCCCCC(=O)NCCCC[C@H](NC(=O)[C@@H](NC(=O)[C@H](CO)NC(=O)[C@H](CO)NC(C)=O)[C@@H](C)CC)C(=O)Nc1ccc2c(C)cc(=O)oc2c1 (Ac-SSIK(Decanoyl)-{AMC}) | 0.31 | 1.64 | 0.73 | 0.4 | 2.13 | Active | 1.04 | 0.73 | 1.34 | 1.03 | 0.29 | 1.38 | 13.5 | 0.39 | 1.08 | 1.38 | 0.3 | 7.07 | 0.67 | 
